Reference: patent US20200270216A1, “COMPOSITIONS AND METHODS FOR INHIBITING N-SMASE2” (The Regents of the University of California, priority 2017, published 2020)
“Also recorded” adds a separate entry of the source.

How the values were obtained:
[1] = system: HEK293T Tau RD P301S FRET biosensor cells; assay: D+R functional assay: tau seed transfer from P2-seeded donor cells to DiD-labeled recipient cells; assay type: cell-based
Procedure: The compounds disclosed herein were further evaluated in the functional assays (“D+R approach”). The assays were based on the use of two cell populations—donor cells (D) and recipient cells (R). Recipients express a specific signal upon accumulation of protein aggregates (for example, FRET signal). The D+R approach can be divided into four steps (FIG. 4A).
In step 1, donor and recipient cells were plated in separation and protein aggregation is induced in the donor cells by using tissue-derived or synthetic proteopathic seeds (“seeding”) or by chemical and/or genetic methods. In step 2, either donor cells or recipient cells were labeled with a lipophilic dye (or by other cell labeling technology) in order to be able to distinguish between donor and recipients cells after trypsinization and re-plating of the donor and recipient cells together in step 3 (R+D). Alternatively, donor and recipient cells were physically divided by a permeable support (for example, Transwell). In any scenario, the cells were connected through the media and they grow for 24-60 hours with or without addition of pre-selected compounds. Efficiency of proteopathic seed transmission from donor cells to recipient cells can be analyzed using microscopy, flow cytometry, or imaging flow cytometry. […] Treatment of the tau biosensor cells with tau seeds lead to RD aggregation, as a result, CFP and YFP molecules come into close proximity and a FRET signal can be generated in the CFP/YFP pair upon illumination. The far-red fluorescent, lipophilic carbocyanine dye, DiD, was used for labeling recipient cells. This dye allowed for distinguishing between the DiD-negative donor and the DiD positive recipient cells without interference with the CFP/YFP FRET signal. The representative images of DiD-negative FRETpositive donor cell seeded with P2-derived tau seeds), DiD-positive FRET-negative recipient cell (DiD-R), and DiD positive FRET-positive recipient cell, which were growing in the presence of P2-D (DiD-R/R+D) are presented at the FIG. 4B. […]

[2] = system: P2-seeded tau biosensor cells; assay: EV purification and characterization (immunoblot of exosome markers, nanoparticle tracking analysis); assay type: cell-based
Text: Extracellular vesicles (EVs) were purified from the cell culture medium using Exo-Quick-TC exosome purification kit (SBI, EXOTC10A-1) according to the manufacturing instructions. Immunoblot analysis of the EV fractions was done by 10-20% Tris-Glycine gel in non-reduced conditions, transferred to PVDF membrane and probed with antibodies against CD63 (ThermoFisher, 10628D), followed by HRP-conjugated secondary antibodies. Chemiluminescent signals were obtained with Super Signal West Femto substrate (Thermo Scientific Pierce 34,095) and detected using a BioSpectrum 600 imaging system and quantified using VisionWorks Version 6.6A software (UVP; Upland, Calif.). […] Inhibition of nSMase2 activity in cell extracts of confluent tau biosensors was confirmed by nSMase2 activity assay analogous to the one described in Example 2.
Our analysis confirmed that nSMase2 inhibitors suppress release of EVs from P2-seeded tau biosensor cells. […] EV samples purified from the same number of donor cells were analyzed per each group. Purified EVs were imaged by transmission electron microscopy (FIG. 5C). Size distribution of particles in the samples were assessed by nanoparticle tracking analysis (FIG. 5D). WB analysis for exosome markers also confirmed decrease in the exosome-specific marker expression (FIG. 5E).
Donor cells were grown in medium with exosome-depleted FBS (ThermoFisher, A2720803) for 48 hours with or without compounds, cell culture medium was collected and EVs purified using ExoQuick-TC kit (SBI biosciences). For quality control, small amounts of purified EVs were fixed on a copper mesh in glutaraldehyde/paraformaldehyde solution, stained with 2% uranyl acetate solution and imaged on a JEOL 100CX electron microscope at 29,000 times magnification. […] Chemiluminescent signals were obtained with Super Signal West Femto substrate (Thermo Scientific Pierce 34095) and detected using a BioSpectrum 600 imaging system and quantified using VisionWorks Version 6.6A software (UVP; Upland, Calif.).

Compound: O=c1[nH]c(=S)[nH]c(-c2ccccc2)c1Cc1c(O)ccc2ccccc12 [cambinol]
- tau seed transmission from donor cells to recipient cells ([1]; D+R model, flow cytometry (FIG. 4C)): restrained tau seed transmission from the donor cells to the recipient cells in a dose-dependent manner
- EC50 ([1]; Homo sapiens, HEK-293T, 48 h, 48-hour treatment, P2-seeded donor cells, FRET-positive aggregates in recipient cells, read-out: EC50, reduction of tau transfer from donor to recipient cells (D+R assay)): ~14 µM
- levels of exosomal marker CD63 in cell medium EV fraction ([2]; 10 μM, 60 hours, Western blot (FIG. 3C)): Decrease
- release of EVs from P2-seeded donor cells ([2]; 50 μM, 48 hours, nanoparticle tracking analysis): released less EVs; also recorded: more effective than the nSMase2 inhibitor GW4869
